Patent publication EP3436445B1, “HISTONE DEMETHYLASE INHIBITORS” (Celgene Quanticel Research, Inc., priority 2016, dated 2017)

Key:
FBXL11 = biological target: T1, FBXL11 (Homo sapiens, UniProt Q9Y2K7); assay: FBXL11 in vitro enzyme inhibition assay (AlphaScreen); format: biochemical; conditions: Table 3; 0.15 nM FBXL11, H3K36me2-biotin labeled peptide
T1 construct: purchased BPS Bioscience 50102
T1 sequence (Q9Y2K7 1-1162): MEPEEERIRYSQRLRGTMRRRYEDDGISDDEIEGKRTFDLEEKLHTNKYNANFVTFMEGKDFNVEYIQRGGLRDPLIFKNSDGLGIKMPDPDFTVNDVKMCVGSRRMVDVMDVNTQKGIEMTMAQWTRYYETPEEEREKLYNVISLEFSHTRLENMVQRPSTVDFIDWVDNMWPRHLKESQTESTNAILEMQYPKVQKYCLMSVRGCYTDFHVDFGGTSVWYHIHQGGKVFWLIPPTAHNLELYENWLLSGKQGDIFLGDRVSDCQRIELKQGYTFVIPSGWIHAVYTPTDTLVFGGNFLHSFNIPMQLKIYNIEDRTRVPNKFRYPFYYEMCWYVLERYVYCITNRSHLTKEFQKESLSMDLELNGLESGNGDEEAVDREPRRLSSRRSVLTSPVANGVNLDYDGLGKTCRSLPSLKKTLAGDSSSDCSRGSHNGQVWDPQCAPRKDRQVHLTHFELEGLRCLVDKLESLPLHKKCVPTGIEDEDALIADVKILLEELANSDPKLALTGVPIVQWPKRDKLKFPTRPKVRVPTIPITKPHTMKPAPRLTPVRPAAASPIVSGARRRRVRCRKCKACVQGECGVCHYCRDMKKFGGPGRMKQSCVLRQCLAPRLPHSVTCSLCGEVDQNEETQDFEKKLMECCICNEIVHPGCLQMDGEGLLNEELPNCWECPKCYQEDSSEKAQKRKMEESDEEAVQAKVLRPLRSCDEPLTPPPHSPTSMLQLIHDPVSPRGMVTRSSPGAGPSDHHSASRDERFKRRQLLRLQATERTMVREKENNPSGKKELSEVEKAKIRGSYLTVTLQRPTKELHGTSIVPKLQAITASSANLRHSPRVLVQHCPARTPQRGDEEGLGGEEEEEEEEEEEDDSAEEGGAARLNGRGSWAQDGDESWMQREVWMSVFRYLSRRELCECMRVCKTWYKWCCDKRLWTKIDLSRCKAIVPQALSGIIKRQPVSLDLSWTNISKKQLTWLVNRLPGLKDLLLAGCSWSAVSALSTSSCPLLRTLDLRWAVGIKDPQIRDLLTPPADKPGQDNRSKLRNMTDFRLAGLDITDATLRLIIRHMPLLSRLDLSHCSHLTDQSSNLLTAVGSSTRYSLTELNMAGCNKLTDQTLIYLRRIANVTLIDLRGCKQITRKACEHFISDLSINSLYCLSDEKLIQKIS
Excerpt: (§1) This assay determines the ability of a test compound to inhibit FBXL11, FBXL10, and PHF8 demethylase activity. Baculovirus expressed FBXL11 (GenBank Accession #NM_012308, AA1-1162) was purchased from BPS Bioscience (Cat#50102). Baculovirus expressed FBXL10 (GenBank Accession #NM_032590, AA 1-650) was purchased from BPS Bioscience (Cat #50120). Baculovirus expressed PHF8 (GenBank Accession NP_055922.1) was purchased from Active Motif (Cat#31435).
The ability of test compounds to inhibit the activity of FBXL11 was determined in 384-well plate format under the following reaction conditions: 0.15 nM FBXL11, 30 nM H3K36me2-biotin labeled peptide (Anaspec cat # 64442), 0.2 µM alpha-ketoglutaric acid in assay buffer of 50 mM HEPES, pH7.3, 0.005% Brij35, 0.5 mM TCEP, 0.2 mg/ml BSA, 50 µM sodium L-ascorbate, 5 µM ammonium iron(II) sulfate. Reaction product is determined quantitatively by AlphaScreen detection after the addition of detection reagents anti-H3K36me1 antibody, AlphaScreen® Streptavidin-coated Donor beads, and AlphaScreen® Protein A Acceptor beads in 50 mM HEPES, pH7.3, 10 mM NaCl, 0.005% Brij35, 5 mM EDTA, 2 mg/ml BSA to final 10 µg/ml beads.
The assay reaction was initiated by the following: 3 µl of the mixture of 90 nM H3K36me2-biotin labeled peptide and 0.6 µM alpha-ketoglutaric acid with 3 µl of 11-point serial diluted inhibitor in 3% DMSO are added to each well of 384 well Proxiplate (Perkin Elmer), followed by the addition of 3 µl of 0.45 nM FBXL11 to initiate the reaction. The reaction mixture is incubated at room temperature for 1 hour, and terminated by the addition of 3 µl of appropriate dilution of anti H3K36me1 antibody in 50 mM HEPES, pH7.3, 10 mM NaCl, 0.005% Brij35, 5 mM EDTA, 2 mg/ml BSA. Plates will then incubated at room temperature for 40 minutes, followed by addition of 3 µl of 50 µg/ml AlphaScreen® Streptavidin-coated Donor beads and AlphaScreen® Protein A Acceptor beads in 50 mM HEPES, pH7.3, 10 mM NaCl, 0.005% Brij35, 5 mM EDTA, 2 mg/ml BSA. Plates will then be read by EnVision Multilabel Reader in AlphaScreen mode after minimum 2 hour incubation at room temperature. The AlphaScreen signal for each well is used to determine inhibition constant (IC50).

PHF8 = biological target: T2, PHF8 (Homo sapiens, UniProt Q9UPP1); assay: PHF8 in vitro enzyme inhibition assay (TR-FRET); format: biochemical; conditions: Table 3; 3 nM PHF8, H3K9me1-biotin labeled peptide
T2 construct: purchased Active Motif 31435
T2 sequence (Q9UPP1 37-1060): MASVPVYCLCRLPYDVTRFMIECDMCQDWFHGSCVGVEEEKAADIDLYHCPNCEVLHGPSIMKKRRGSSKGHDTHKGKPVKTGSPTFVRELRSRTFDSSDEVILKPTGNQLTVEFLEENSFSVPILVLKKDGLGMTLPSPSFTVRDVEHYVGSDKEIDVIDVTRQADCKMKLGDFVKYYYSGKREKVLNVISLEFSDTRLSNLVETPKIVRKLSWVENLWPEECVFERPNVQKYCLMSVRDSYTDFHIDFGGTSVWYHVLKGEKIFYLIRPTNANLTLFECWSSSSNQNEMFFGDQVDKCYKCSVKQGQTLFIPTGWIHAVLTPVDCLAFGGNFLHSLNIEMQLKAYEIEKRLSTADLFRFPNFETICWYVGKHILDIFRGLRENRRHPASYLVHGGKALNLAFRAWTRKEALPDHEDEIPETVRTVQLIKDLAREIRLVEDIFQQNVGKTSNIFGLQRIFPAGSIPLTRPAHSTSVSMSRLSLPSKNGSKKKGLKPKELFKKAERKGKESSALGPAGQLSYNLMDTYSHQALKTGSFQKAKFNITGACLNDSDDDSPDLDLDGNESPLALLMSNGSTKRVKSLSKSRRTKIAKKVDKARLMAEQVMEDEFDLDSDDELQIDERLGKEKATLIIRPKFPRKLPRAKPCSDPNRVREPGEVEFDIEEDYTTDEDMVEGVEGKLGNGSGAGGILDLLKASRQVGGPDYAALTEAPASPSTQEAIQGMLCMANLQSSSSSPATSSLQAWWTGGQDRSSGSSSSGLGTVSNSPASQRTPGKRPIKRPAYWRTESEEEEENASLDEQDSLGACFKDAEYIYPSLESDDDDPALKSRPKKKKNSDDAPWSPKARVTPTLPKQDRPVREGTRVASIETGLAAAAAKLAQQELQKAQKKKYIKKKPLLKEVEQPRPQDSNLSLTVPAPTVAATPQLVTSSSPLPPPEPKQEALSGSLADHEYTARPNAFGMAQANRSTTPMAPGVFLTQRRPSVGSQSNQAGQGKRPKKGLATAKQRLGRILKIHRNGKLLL
Excerpt: as §1
The ability of test compounds to inhibit the activity of PHF8 was determined in 384-well plate format under the following reaction conditions: 3 nM PHF8, 200 nM H3K9me1-biotin labeled peptide (Anaspec cat #64358), 0.5 µM alpha-ketoglutaric acid in assay buffer of 50 mM HEPES, pH7.3, 0.005% Brij35, 0.5 mM TCEP, 0.2 mg/ml BSA, 50 µM sodium L-ascorbate, and 5 µM ammonium iron(II) sulfate. Reaction product was determined quantitatively by TR-FRET after the addition of detection reagent Phycolink Streptavidin-allophycocyanin (Prozyme) and Europium-anti-unmodified-histone H3 lysine 9/lysine27 (H3K9/K27) antibody (PerkinElmer) in the presence of 5 mM EDTA in LANCE detection buffer (PerkinElmer) at a final concentration of 25 nM and 0.5 nM, respectively.
The assay reaction was initiated by the following: 2 µl of the mixture of 600 nM H3K9me1-biotin labeled peptide and 1.5 µM alpha-ketoglutaric acid with 2 µl of 11-point serial diluted inhibitor in 3% DMSO were added to each well of the plate, followed by the addition of 2 µl of 9 nM PHF8 to initiate the reaction. The reaction mixture was incubated at room temperature for 15 minutes, and terminated by the addition of 6 µl of 5 mM EDTA in LANCE detection buffer containing 50 nM Phycolink Streptavidin-allophycocyanin and 1 nM Europium-anti-unmodified H3K9/K27 antibody. Plates were read by EnVision Multilabel Reader in TR-FRET mode (excitation at 320 nm, emission at 615 nm and 665 nm) after 1 hour incubation at room temperature. A ratio was calculated (665/615) for each well and fitted to determine inhibition constant (IC50).

| SMILES | IC50 (FBXL11) [µM] | IC50 (PHF8) [µM] |
| --- | --- | --- |
| Clc1cccc(-n2cnc(-c3cc4[nH]nnc4cn3)c2)c1 [Example 51, 1-(3-chlorophenyl)-4-{1H-[1,2,3]triazolo[4,5-c]pyridin-6-yl}-1H-imidazole] | 0.1 to 1 | 1 to 10 |
| Clc1ccc(Cn2cnc(-c3cc4[nH]nnc4cn3)c2)cc1Cl [Example 48, 1-[(3,4-dichlorophenyl)methyl]-4-{1H-[1,2,3]triazolo[4,5-c]pyridin-6-yl}-1H-imidazole] | ≤ 0.1 | 1 to 10 |
| Clc1ccc(Cn2cnc(-c3cc4[nH]nnc4cn3)c2)cc1 [Example 47, 1-[(4-chlorophenyl)methyl]-4-{1H-[1,2,3]triazolo[4,5-c]pyridin-6-yl}-1H-imidazole] | ≤ 0.1 | 1 to 10 |
| Clc1cccc(Cn2cnc(-c3cc4[nH]nnc4cn3)c2)c1 [Example 46, 1-[(3-chlorophenyl)methyl]-4-{1H-[1,2,3]triazolo[4,5-c]pyridin-6-yl}-1H-imidazole] | ≤ 0.1 | 1 to 10 |
| Clc1ccc(-n2cnc(-c3cc4[nH]nnc4cn3)c2)cc1 [Example 49, 1-(4-chlorophenyl)-4-{1H-[1,2,3]triazolo[4,5-c]pyridin-6-yl}-1H-imidazole] | ≤ 0.1 | 1 to 10 |

Second part, the molecule after the results:

| IC50 (FBXL11) [µM] | IC50 (PHF8) [µM] | SMILES |
| --- | --- | --- |
| ≤ 0.1 | 1 to 10 | Clc1ccccc1-n1cnc(-c2cc3[nH]nnc3cn2)c1 [Example 50, 1-(2-chlorophenyl)-4-{1H-[1,2,3]triazolo[4,5-c]pyridin-6-yl}-1H-imidazole] |
| ≤ 0.1 | 1 to 10 | Clc1ccccc1Cn1cnc(-c2cc3[nH]nnc3cn2)c1 [Example 45, 1-[(2-chlorophenyl)methyl]-4-{1H-[1,2,3]triazolo[4,5-c]pyridin-6-yl}-1H-imidazole] |
| ≤ 0.1 | 0.1 to 1 | c1ccc(Cn2cnc(-c3cc4[nH]nnc4cn3)c2)cc1 [Example 44, 1-benzyl-4-{1H-[1,2,3]triazolo[4,5-c]pyridin-6-yl}-1H-imidazole] |
